Results from ChEMBL document CHEMBL4420080, “Inhibitors of sox18 protein activity for treating angiogenesis- and/or lymphangiogenesis-related diseases” (2018).
Active and inactive are the calls of the source. The calls are words filed in the database; no cut-off is given here.

Legend:
Cricetinae = assay: Inhibition of hamster KATP channel at 10 uM relative to control
Rattus norvegicus = species: Rattus norvegicus; assay: Inhibition of rat rolipram binding site at 10 uM relative to control
Danio rerio [1] = assay: Induction of arterial and venous genes dys-regulation in zebrafish larvae harboring fli1 a:eGFP,-6.5kdrl:mCherry assessed as effect on hey1 gene expression at 1.5 uM dosed starting from 16 hpf and measured at 24 and 48 hpf by qRT-PCR analysis; type: functional, organism-based
4T1.2 = assay: Inhibition of tumor induced lymphangiogenesis response in mouse 4T1.2 cells implanted BALB/c mouse assessed as reduction in tumor associated lymphatic vessels at 25 mg/kg/day for 10 days by PROX1/podoplanin detection based immunofluorescent staining relative to control; type: functional; conditions: 4T1.2, 240 h
Danio rerio [2] = assay: Induction of arterial and venous genes dys-regulation in zebrafish larvae harboring fli1 a:eGFP,-6.5kdrl:mCherry assessed as effect on Ilt4 gene expression at 1.5 uM dosed starting from 16 hpf and measured at 24 and 48 hpf by qRT-PCR analysis; type: functional, organism-based
[3] = biological target: Sodium-dependent noradrenaline transporter (Homo sapiens) (UniProt P23975); assay: Inhibition of human NET at 10 uM relative to control
[4] = biological target: Mu-type opioid receptor (Homo sapiens) (UniProt P35372); assay: Inhibition of human mu opioid receptor at 10 uM relative to control
[5] = biological target: Transcription factor SOX-18 (Homo sapiens, UniProt P35713); assay: Inhibition of SOX18 in HUVEC assessed as reduction of SOX18-ESR1 interactions incubated for 45 mins by Alpha-screen assay; type: cell-based
[6] = biological target: D(1A) dopamine receptor (Homo sapiens) (UniProt P21728); assay: Inhibition of human dopamine D1 receptor at 10 uM relative to control
[7] = biological target: 5-hydroxytryptamine receptor 2B (Homo sapiens) (UniProt P41595); assay: Inhibition of human 5HT2B receptor at 10 uM relative to control
[8] = biological target: D(2) dopamine receptor (Homo sapiens) (UniProt P14416); assay: Inhibition of human dopamine D2S receptor at 10 uM relative to control
Danio rerio [9] = assay: Induction of arterial and venous genes dys-regulation in zebrafish larvae harboring fli1 a:eGFP,-6.5kdrl:mCherry assessed as effect on dll4 gene expression at 1.5 uM dosed starting from 16 hpf and measured at 24 and 48 hpf by qRT-PCR analysis; type: functional, organism-based
[10] = biological target: Androgen receptor (Homo sapiens) (UniProt P10275); assay: Inhibition of human androgen receptor at 10 uM relative to control
Androgen receptor (Homo sapiens), sequence (P10275 whole entry): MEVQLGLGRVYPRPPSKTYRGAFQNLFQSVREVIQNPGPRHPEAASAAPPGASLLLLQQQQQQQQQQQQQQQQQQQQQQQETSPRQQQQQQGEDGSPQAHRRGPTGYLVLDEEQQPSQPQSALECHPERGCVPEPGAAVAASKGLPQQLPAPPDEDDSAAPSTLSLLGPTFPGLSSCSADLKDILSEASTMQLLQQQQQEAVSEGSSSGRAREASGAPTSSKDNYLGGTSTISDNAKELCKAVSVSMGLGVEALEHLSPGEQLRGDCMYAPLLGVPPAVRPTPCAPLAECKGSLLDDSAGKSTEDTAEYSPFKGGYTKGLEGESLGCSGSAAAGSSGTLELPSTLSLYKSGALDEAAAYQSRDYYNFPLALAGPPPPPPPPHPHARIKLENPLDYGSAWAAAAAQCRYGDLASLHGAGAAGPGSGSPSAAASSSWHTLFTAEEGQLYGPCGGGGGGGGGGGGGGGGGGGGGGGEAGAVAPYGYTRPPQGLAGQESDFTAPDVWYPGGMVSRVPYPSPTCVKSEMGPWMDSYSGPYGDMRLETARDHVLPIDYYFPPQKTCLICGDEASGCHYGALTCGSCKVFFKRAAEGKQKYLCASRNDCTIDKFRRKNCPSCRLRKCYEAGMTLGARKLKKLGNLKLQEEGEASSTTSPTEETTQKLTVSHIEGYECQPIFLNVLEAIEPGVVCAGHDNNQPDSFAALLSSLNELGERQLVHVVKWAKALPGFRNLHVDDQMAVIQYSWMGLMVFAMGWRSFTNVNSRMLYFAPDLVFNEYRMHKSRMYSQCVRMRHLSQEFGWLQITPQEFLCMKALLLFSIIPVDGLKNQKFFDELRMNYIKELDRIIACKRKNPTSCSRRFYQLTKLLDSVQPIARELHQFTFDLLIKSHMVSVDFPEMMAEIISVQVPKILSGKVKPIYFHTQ

Transcription factor SOX-18, sequence (P35713 whole entry): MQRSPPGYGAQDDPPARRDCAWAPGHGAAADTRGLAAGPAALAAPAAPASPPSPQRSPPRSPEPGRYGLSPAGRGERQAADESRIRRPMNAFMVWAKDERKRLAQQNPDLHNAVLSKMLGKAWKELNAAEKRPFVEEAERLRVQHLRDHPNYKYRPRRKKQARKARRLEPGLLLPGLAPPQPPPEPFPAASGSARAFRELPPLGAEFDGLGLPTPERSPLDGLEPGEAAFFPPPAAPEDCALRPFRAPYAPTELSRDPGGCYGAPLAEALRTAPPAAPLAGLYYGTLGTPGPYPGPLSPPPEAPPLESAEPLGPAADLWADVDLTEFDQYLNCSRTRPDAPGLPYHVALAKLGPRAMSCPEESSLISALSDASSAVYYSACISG
Sodium-dependent noradrenaline transporter (Homo sapiens), sequence (P23975 whole entry): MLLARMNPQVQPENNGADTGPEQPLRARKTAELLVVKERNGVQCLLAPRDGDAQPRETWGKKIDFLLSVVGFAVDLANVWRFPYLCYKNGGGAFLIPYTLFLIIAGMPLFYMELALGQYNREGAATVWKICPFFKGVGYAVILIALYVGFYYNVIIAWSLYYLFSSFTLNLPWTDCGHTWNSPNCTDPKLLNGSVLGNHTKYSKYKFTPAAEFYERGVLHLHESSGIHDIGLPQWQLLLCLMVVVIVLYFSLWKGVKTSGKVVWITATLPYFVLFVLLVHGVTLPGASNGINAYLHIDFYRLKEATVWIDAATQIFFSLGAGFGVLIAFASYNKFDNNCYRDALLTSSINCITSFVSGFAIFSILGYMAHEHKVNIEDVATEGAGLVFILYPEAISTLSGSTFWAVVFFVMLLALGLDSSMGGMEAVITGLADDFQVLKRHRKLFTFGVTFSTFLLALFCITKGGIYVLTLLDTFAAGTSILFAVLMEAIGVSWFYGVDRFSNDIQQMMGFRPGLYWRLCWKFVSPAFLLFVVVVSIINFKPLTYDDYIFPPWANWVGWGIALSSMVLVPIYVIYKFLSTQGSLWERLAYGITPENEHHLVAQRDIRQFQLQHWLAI
D(2) dopamine receptor (Homo sapiens), sequence (P14416 whole entry): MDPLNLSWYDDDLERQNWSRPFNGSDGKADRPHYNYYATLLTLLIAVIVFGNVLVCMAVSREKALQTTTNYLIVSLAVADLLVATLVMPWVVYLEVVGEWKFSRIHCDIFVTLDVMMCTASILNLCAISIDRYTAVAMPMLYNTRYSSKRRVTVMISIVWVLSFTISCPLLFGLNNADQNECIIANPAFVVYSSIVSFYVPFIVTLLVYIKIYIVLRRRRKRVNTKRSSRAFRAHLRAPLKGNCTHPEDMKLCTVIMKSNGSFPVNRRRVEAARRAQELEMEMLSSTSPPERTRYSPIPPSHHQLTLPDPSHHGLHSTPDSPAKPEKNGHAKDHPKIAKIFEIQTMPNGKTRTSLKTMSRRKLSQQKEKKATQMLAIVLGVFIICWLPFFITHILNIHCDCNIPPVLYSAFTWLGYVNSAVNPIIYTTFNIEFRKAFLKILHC
Mu-type opioid receptor (Homo sapiens), sequence (P35372 whole entry): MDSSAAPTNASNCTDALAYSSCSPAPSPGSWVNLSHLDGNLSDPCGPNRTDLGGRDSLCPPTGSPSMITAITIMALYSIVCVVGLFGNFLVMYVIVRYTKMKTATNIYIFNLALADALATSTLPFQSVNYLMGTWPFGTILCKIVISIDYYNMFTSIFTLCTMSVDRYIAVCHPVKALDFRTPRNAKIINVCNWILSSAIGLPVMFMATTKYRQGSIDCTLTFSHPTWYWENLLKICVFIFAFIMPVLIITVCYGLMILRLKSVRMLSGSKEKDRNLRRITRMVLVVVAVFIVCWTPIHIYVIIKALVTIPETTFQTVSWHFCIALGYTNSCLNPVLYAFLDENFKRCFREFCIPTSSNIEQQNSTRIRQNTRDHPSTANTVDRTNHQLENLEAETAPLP
D(1A) dopamine receptor (Homo sapiens), sequence (P21728 whole entry): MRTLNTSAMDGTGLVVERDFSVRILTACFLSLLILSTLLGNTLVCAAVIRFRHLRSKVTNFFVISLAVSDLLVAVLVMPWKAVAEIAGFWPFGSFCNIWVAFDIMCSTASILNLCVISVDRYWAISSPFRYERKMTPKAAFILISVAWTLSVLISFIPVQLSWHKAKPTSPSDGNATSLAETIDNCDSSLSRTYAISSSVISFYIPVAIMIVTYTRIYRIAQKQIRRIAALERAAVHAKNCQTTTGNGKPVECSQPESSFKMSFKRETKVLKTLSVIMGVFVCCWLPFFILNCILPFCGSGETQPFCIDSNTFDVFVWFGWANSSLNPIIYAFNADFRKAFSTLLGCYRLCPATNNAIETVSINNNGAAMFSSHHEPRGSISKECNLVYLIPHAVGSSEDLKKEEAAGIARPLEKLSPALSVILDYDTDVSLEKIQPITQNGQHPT
5-hydroxytryptamine receptor 2B (Homo sapiens), sequence (P41595 whole entry): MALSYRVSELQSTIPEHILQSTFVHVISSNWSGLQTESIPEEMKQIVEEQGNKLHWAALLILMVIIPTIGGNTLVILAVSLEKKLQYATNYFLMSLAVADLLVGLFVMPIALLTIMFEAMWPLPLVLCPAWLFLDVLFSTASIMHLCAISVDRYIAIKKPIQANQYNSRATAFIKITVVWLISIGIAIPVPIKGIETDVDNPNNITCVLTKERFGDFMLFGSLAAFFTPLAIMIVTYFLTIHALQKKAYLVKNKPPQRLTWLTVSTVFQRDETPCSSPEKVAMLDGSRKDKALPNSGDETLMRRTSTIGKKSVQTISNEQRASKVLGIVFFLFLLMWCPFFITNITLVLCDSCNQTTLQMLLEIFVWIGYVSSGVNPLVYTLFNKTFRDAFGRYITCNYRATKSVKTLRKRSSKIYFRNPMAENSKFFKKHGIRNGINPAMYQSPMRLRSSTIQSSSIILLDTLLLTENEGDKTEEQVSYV

O=C(O)c1c(O)cccc1CCc1ccc2ccccc2c1
inhibition (Cricetinae): 10% | inhibition (Rattus norvegicus): 1% | Activity (Danio rerio [1]): Active | inhibition in vivo at 25 mg/kg/day (4T1.2): 65% | Activity (Danio rerio [2]): Active | inhibition [3]: 34% | inhibition [4]: 3% | IC50 [5]: Not Active | inhibition [6]: 12% | inhibition [7]: -2% | inhibition [8]: 15% | Activity (Danio rerio [9]): Active | inhibition [10]: 1%
